In PMC12442081, “Combating Fuel Biocontamination: Tailored Antimicrobial Peptides and an Innovative Delivery Strategy” (ACS Applied Bio Materials, 2025):
Where two headings read alike, the source gives them in different places. Where no end group is shown, it is not given here.

Assays:
[1] = tested on: Bacillus licheniformis (BL) ATCC 14580; assay type: cell-based
Method: (§1) All of the bacterial species were grown overnight at 37 °C in LB broth. 10^7 CFU/mL of cells were resuspended in fresh culture and grown until the mid log phase. , The bacterial cells were adjusted to a concentration of 5 × 10^5 CFU/mL to quantify the MIC. Equal volumes of the respective bacterial cultures were incubated with the serially diluted peptides in 96-well microtiter plate and incubated overnight at 37 °C in ambient air. Microorganisms without peptides were treated as the positive control, while uninoculated broth was used as the negative control. The MIC was taken as the lowest peptide concentration at which observable bacteria growth was inhibited, as measured by a microplate reader (Biotek Synergy H1 microplate reader). Experiments were performed in triplicates, and the mean MIC values were determined. A similar study was performed to understand the effect of peptide purity, i.e., ranging from 70 to 95%, on the peptide MIC.

[2] = tested on: Dermacoccus nishinomiyaensis (DN) ATCC 29093; assay type: cell-based
Method: as §1

[3] = tested on: Macrococcus caseolyticus (MC) ATCC 13548; assay type: cell-based
Method: as §1

[4] = tested on: Micrococcus yunnanensis (MY) ATCC 12698; assay type: cell-based
Method: as §1

[5] = tested on: Pseudomonas aeruginosa (PA) ATCC 39327; assay type: cell-based
Method: as §1

[6] = tested on: Sphingomonas paucimobilis (SP); assay type: cell-based
Method: as §1

[7] = HPLC retention time as a function of peptide hydrophobicity; assay type: physicochemical; conditions: chromatographic, Polaris 5 C18-A reverse phase, 0.1% TFA water / 0.1% TFA acetonitrile gradient, 30 min, 300 μM peptide
Method: The purity of the peptides was ascertained by high-performance liquid chromatography (HPLC) using Polaris 5 C18-A […] × 4.6 mm reverse phase Zorbax columns from Agilent Technologies. The buffer system contained 0.1% (v/v) TFA in 100% water and 0.1% (v/v) TFA in 100% acetonitrile. Each peptide sample contained 300 μM peptides dissolved in an acetonitrile–water (1:4) mixture. A constant gradient of the two solvent systems was used to generate the chromatogram for 30 min after sample injection.

[8] = tested on: Bacillus licheniformis (BL); test: Effectiveness of peptides on spiked fuel samples (aqueous layer); assay type: cell-based; design: key: (+) =1 (implying peptide activity in fuel environment); (X) = 0 (implying no activity in the desired range, indicated by microbial proliferation); Fuel x = -1(implying no activity in fuel environment); conditions: initial screening in spiked fuel
Method: (§2) To study the partitioning of microbes in fuel tanks, filter-sterilized fuel was mixed with BH medium in a 1:1 (v/v) ratio. The inoculum was added to the aqueous phase at the bottom to simulate growth in the aqueous layer of fuel tanks and incubated aerobically at 30 °C for 30 days. Visible growth was assessed, and aliquots from both the aqueous and fuel phases were plated on nutrient agar plates to evaluate microbial growth. Peptides were initially added to the aqueous layer of microbially spiked fuel samples for screening the effectiveness in the fuel environment. The study was further extended over a longer duration, and incubated under aerobic conditions at 30 °C for 30 days. Microbial growth was monitored at regular intervals by plating aliquots from the aqueous layer on the nutrient agar plates.
(§3) The engineered peptides were administered at their respective MICs to the aqueous layer of simulated fuel samples, and samples from both the aqueous and solvent (fuel) layers were removed at intervals of 7, 14, 21, and 30 days and plated on LBA plates to assess cell viability (Table S5).

[9] = tested on: Dermacoccus nishinomiyaensis (DN); test: as above; assay type: cell-based; design: key: (+) =1 (implying peptide activity in fuel environment); (X) = 0 (implying no activity in the desired range, indicated by microbial proliferation); Fuel x = -1(implying no activity in fuel environment); conditions: initial screening in spiked fuel
Method: as §2, §3

Hormoconis resinae (HR) = test: as above; assay type: cell-based; design: key: (+) =1 (implying peptide activity in fuel environment); (X) = 0 (implying no activity in the desired range, indicated by microbial proliferation); Fuel x = -1(implying no activity in fuel environment); conditions: initial screening in spiked fuel
Method: as §2, §3

Kocuria rosea (KR) = test: as above; assay type: cell-based; design: key: (+) =1 (implying peptide activity in fuel environment); (X) = 0 (implying no activity in the desired range, indicated by microbial proliferation); Fuel x = -1(implying no activity in fuel environment); conditions: initial screening in spiked fuel
Method: as §2, §3

[10] = tested on: Macrococcus caseolyticus (MC); test: as above; assay type: cell-based; design: key: (+) =1 (implying peptide activity in fuel environment); (X) = 0 (implying no activity in the desired range, indicated by microbial proliferation); Fuel x = -1(implying no activity in fuel environment); conditions: initial screening in spiked fuel
Method: as §2, §3

[11] = tested on: Micrococcus yunnanensis (MY); test: as above; assay type: cell-based; design: key: (+) =1 (implying peptide activity in fuel environment); (X) = 0 (implying no activity in the desired range, indicated by microbial proliferation); Fuel x = -1(implying no activity in fuel environment); conditions: initial screening in spiked fuel
Method: as §2, §3

[12] = tested on: Pseudomonas aeruginosa (PA); test: as above; assay type: cell-based; design: key: (+) =1 (implying peptide activity in fuel environment); (X) = 0 (implying no activity in the desired range, indicated by microbial proliferation); Fuel x = -1(implying no activity in fuel environment); conditions: initial screening in spiked fuel
Method: as §2, §3

Roseomonas mucosa (RM) = test: as above; assay type: cell-based; design: key: (+) =1 (implying peptide activity in fuel environment); (X) = 0 (implying no activity in the desired range, indicated by microbial proliferation); Fuel x = -1(implying no activity in fuel environment); conditions: initial screening in spiked fuel
Method: as §2, §3

[13] = tested on: Sphingomonas paucimobilis (SP); test: as above; assay type: cell-based; design: key: (+) =1 (implying peptide activity in fuel environment); (X) = 0 (implying no activity in the desired range, indicated by microbial proliferation); Fuel x = -1(implying no activity in fuel environment); conditions: initial screening in spiked fuel
Method: as §2, §3

[14] = tested on: microbial clusters MY, KR, DN, MC, BL, RM, SP, PA, HR; test: Broad-spectrum activity score (in-house scoring matrix); conditions: sum over 9 microbial clusters: (+) = 1, (X) = 0, Fuel x = -1
Method: Table S4. Summarizing the broad-spectrum activity of the peptides, considering the MIC value/ efficacy to control microbial growth upon fuel co-incubation
Peptides Bacterial clusters Fungal
Actinobacteria Firmicutes Proteobacteria Asco- […]
Peptides identified based on the scoring matrix, where (+) =1 (implying peptide activity in fuel environment); (X) = 0 (implying no activity in the desired range, indicated by microbial proliferation); Fuel x = -1(implying no activity in fuel environment).
Clearly, P17 is the best performing peptide in vitro across diverse microbial phyla as well as when incubated in the fuel environment. Based on the activity of the selected peptides, the best

[15] = tested on: Kocuria rosea (KR) ATCC 186; assay type: cell-based
Method: as §1

[16] = LB broth, 5 × 10^5 CFU/mL, overnight 37 °C, mean of triplicates, “–” = no detectable activity

Molecule | MIC ([1]; ATCC 14580) [µM] | MIC [2] [µM] | MIC [3] [µM] | MIC [4] [µM] | MIC ([5]; ATCC 39327) [µM] | MIC [6] [µM] | R t, retention time of peptide on HPLC column as a function of peptide hydrophobicity [7] [min] | activity considering MIC value/efficacy upon fuel co-incubation [8] | activity considering MIC value/efficacy upon fuel co-incubation [9] | activity considering MIC value/efficacy upon fuel co-incubation (Hormoconis resinae (HR)) | activity considering MIC value/efficacy upon fuel co-incubation (Kocuria rosea (KR)) | activity considering MIC value/efficacy upon fuel co-incubation [10] | activity considering MIC value/efficacy upon fuel co-incubation [11] | activity considering MIC value/efficacy upon fuel co-incubation [12] | activity considering MIC value/efficacy upon fuel co-incubation (Roseomonas mucosa (RM)) | activity considering MIC value/efficacy upon fuel co-incubation [13] | Score [14] | other results
ILPWKFPWWPWRR [P9] | 3.9 | 0.9 | 0.9 | 0.9 | 31.25 | 7.8 | 12.610 | + | + | X | X | + | + | X | X | X | 4 | –
CC[C@H](C)[C@H](N)C(=O)N[C@@H](CC(C)C)C(=O)N[C@@H](Cc1c[nH]c2ccccc12)C(=O)N[C@@H](Cc1c[nH]c2ccccc12)C(=O)N[C@@H](CCCCN)C(=O)N[C@@H](Cc1c[nH]c2ccccc12)C(=O)N1CCC[C@H]1C(=O)N[C@@H](Cc1c[nH]c2ccccc12)C(=O)N[C@@H](Cc1c[nH]c2ccccc12)C(=O)N1CCC[C@H]1C(=O)N[C@@H](Cc1c[nH]c2ccccc12)C(=O)N[C@@H](CCCNC(=N)N)C(=O)N[C@@H](CCCNC(=N)N)C(=O)O [P15] | 0.9 | – | 0.9 | – | – | 0.9 | 14.327 | + | X | X | X | + | X | X | X | + | 3 | –
CC(C)C[C@H](NC(=O)[C@@H](N)Cc1ccc(O)cc1)C(=O)N1CCC[C@H]1C(=O)N[C@@H](Cc1c[nH]c2ccccc12)C(=O)N[C@@H](CCCCN)C(=O)N[C@@H](Cc1c[nH]c2ccccc12)C(=O)N1CCC[C@H]1C(=O)N[C@@H](Cc1c[nH]c2ccccc12)C(=O)N[C@@H](Cc1c[nH]c2ccccc12)C(=O)N1CCC[C@H]1C(=O)N[C@@H](Cc1c[nH]c2ccccc12)C(=O)N[C@@H](CCCNC(=N)N)C(=O)N[C@@H](CCCNC(=N)N)C(=O)O [P14] | 3.9 | – | – | – | – | 0.9 | 12.279 | + | X | X | Fuel x | X | X | X | X | + | 1 | MIC [15]: 0.9 µM
CC[C@H](C)[C@H](N)C(=O)N[C@@H](CC(C)C)C(=O)N[C@H](C(=O)N[C@@H](Cc1c[nH]c2ccccc12)C(=O)N[C@@H](CCCCN)C(=O)N[C@@H](Cc1c[nH]c2ccccc12)C(=O)N1CCC[C@H]1C(=O)N[C@@H](Cc1c[nH]c2ccccc12)C(=O)N[C@@H](Cc1c[nH]c2ccccc12)C(=O)N1CCC[C@H]1C(=O)N[C@@H](Cc1c[nH]c2ccccc12)C(=O)N[C@@H](CCCNC(=N)N)C(=O)N[C@@H](CCCNC(=N)N)C(=O)O)C(C)C [P12] | 3.9 | 0.9 | 0.9 | 0.9 | 7.8 | 0.9 | 12.903 | + | + | X | X | + | X | X | X | + | 4 | –
ILPWRWPWWPWRR [P10] | – | – | – | – | – | – | 12.417 | + | X | X | X | X | X | X | X | X | 1 | MIC [1, 16]: 3.9 µM; MIC [5, 16]: 31.25 µM; MIC [6, 16]: 7.8 µM
